# “Also recorded” adds a separate entry of the source.
# Key:
# [1] = molecular target: T1, hG9a (Homo sapiens, UniProt Q96KQ7); experiment: Methylation of HA-hG9a in Cos-7 cells (pan met-K immunoprecipitation/immunoblot); assay type: cell-based, African green monkey; conditions: Cos-7 cells, 24 h
# T1 construct: transfected with a plasmid encoding full length HA-hG9a and treated with 2 μM UNC0646; expressed in transfected cells; host or cells: Cos-7
# T1 sequence (Q96KQ7 1-1210): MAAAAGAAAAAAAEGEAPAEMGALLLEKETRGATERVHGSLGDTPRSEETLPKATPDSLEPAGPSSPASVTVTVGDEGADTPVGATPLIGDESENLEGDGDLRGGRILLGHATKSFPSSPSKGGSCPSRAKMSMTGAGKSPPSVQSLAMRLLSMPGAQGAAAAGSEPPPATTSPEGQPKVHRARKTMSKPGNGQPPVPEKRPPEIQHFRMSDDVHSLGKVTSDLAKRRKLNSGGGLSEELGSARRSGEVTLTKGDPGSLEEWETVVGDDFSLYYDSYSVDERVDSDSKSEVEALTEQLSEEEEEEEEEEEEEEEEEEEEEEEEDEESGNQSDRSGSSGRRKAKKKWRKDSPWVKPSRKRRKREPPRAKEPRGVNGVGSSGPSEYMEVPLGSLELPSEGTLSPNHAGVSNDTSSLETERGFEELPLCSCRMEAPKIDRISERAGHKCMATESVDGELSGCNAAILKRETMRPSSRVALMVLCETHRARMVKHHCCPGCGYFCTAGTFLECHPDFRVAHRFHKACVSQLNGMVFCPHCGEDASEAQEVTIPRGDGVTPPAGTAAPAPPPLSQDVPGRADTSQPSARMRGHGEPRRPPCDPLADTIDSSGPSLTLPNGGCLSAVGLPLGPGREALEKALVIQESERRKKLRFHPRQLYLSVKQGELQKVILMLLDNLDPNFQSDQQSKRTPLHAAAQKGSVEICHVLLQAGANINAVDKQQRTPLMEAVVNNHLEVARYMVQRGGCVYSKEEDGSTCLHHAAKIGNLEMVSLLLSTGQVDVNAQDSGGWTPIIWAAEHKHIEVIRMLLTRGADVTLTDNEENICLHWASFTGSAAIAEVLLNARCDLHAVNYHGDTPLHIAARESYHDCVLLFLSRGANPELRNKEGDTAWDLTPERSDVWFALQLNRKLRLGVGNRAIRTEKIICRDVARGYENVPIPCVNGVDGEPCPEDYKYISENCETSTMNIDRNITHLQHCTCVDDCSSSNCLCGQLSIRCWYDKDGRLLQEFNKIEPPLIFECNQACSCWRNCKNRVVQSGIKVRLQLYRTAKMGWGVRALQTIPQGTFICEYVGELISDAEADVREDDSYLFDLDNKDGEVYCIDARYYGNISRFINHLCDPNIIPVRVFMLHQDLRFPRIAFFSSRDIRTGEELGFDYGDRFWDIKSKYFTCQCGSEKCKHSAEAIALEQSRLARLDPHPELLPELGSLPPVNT
# Procedure: Cells were transiently transfected (where indicated) using Lipofectamine 2000 (Invitrogen) with 5 μg each of the indicated plasmids according to the manufacturer's protocol. […] Protein extracts were incubated with 1 μg of the indicated primary antibodies overnight at 4° C. with shaking. Protein A/G Plus Agarose (Santa Cruz sc-2003) beads were added and the mixture was incubated 2 hr at 4° C. The immunoprecipitates were separated on SDS-PAGE. Immunoblotting was conducted with primary antibodies against HA epitope (3F10 Roche Applied Science); G9a (G6919), FLAG (F1804), (3-actin (A5441), or GAPDH (G9545) from Sigma; aurora kinase B (ab2254), HP1γ (ab10480), HP1γ (ab56978), phospho-593-HP1γ (ab45270) or pan methyllysine (ab23366) from Abcam; GR (sc-8992) from Santa Cruz; GLP (09-078), or pan phospho-threonine (AB1607) from Millipore; phospho-S211-GR (#4161), H3K9me3 (#13969), H3S10ph (#53348), Histone H3 (#4499) from Cell signaling; or E-cadherin (610182) from BD transduction laboratories. Secondary antibodies from Santa Cruz Biotechnology (anti-rat) and Promega (anti-rabbit and anti-mouse) were used for chemiluminescence detection using Super Signal West Dura (Thermo Scientific) for proteins with low expression levels and ECL prime detection reagent (Amersham) for all other proteins according to the manufacturers' instructions. In immunoprecipitation experiments 3% of the input of each sample was analyzed by immunoblot using the antibodies listed.
# Lysates were immunoprecipitated (IP) with pan met-K antibody and immunoblotted with HA antibody (top), or the usage of the two antibodies was reversed (bottom). Expression of HA-tagged proteins and β-actin (loading control) in the unfractionated extracts is shown at the bottom (Input). For FIG. 17D, Cos-7 cells were transfected with a plasmid encoding full length HA-hG9a and treated with 2 μM UNC0646 or vehicle DMSO for 24 h. Lysates were immunoprecipitated with pan met-K antibody and immunoblotted with HA antibody (top), or the usage of the two antibodies was reversed (bottom).
# Lysates were immunoprecipitated with pan met-K antibody and immunoblotted with HA antibody (top).
# [2] = test system: NALM6 cells; experiment: Cell death assay (Presto Blue, 72 h) with dex plus inhibitor; assay type: cell-based, human; conditions: NALM-6, 16 nM Alisertib, 72 h
# Procedure: Cells were plated in CellStar low evaporation lid 96-well round-bottom plate at a density of 100,000 cells/ml. Directly after plating, cells were treated in triplicate with serial dilutions of dexamethasone or vehicle control (0.1% ethanol). After 72 h, cell viability of each well was analyzed in duplicate using the Presto Blue Assay Reagent (Life Technologies). Fluorescence was measured and data were analyzed with Prism6 software.
# FIGS. 40A, 40B, 40C, 40D-1, 40D-2, 40D-3, and 40D-4 show Aurora kinase B inhibitors sensitizing NALM6 cells to GC-induced cell death. As shown in FIGS. 40A and 40B, NALM6 cells were treated with the indicated dex concentration in addition to 0.75 μM ZM447439 (FIG. 40A), 16 nM AZD2811 (FIG. 40B), or equivalent volume of vehicle DMSO for 72 h, and cell survival was measured by a fluorescence metabolic assay. In each condition, the value measured with dex was normalized to the fluorescence value measured with ethanol. Percentage of survival is shown as the mean±SEM of 4 independent experiments and p-values for individual dex concentrations were calculated using a paired t-test. *p≤0.05, **p≤0.01, * * *p≤0.001. F-test comparing the two curves: p≤0.001. Insets show the EC50s that were calculated as the concentration at which half the cells remained alive, compare to vehicle controls. Error bars depict the SEM of 4 independent experiments and p-values were calculated to compare AURKB inhibitor treatment to DMSO using a paired t-test ** p≤0.01, * * *p≤0.001. […] The indicated proteins were then examined by immunoblot. As shown in FIGS. 40D-1, 40D-2, 40D-3, and 40D-4, NALM6 cells pre-treated with AZD2811 (16 nM) or DMSO for 24 h, were then treated for 8 h with 100 nM dex or ethanol. mRNA levels for the indicated GR target genes were measured by RT-qPCR and normalized to β-actin mRNA levels.
# FIGS. 48A, 48B, 48C, 48D, 48E, and 48F show the effect of AURKB inhibitors on EHMT2 phosphorylation and dex-induced cell death. […] In each condition, the value measured with dex was normalized to the fluorescence value measured with ethanol. Percentage of survival is shown as the mean±SEM of 4 independent experiments and p-values for individual dex concentrations were calculated using a paired t-test. *p≤0.05, **p≤0.01, * * *p≤0.001. F-test comparing the two curves: p≤0.001. EC50s were calculated as the concentration at which half the cells remained alive, compare to vehicle controls. Error bars depict the SEM of 4 independent experiments and p-value was calculated to compare ZM treatment to DMSO using a paired t-test **p≤0.01, * * *p≤0.001. […] EC50s were calculated as the concentration at which half the cells remained alive, compare to vehicle controls. Error bars depict the SEM of 4 independent experiments and p-value was calculated to compare alisertib treatment to DMSO using a paired t-test. […] (E-F) RCH-ACV cells were treated with the indicated dex concentration in addition to 0.75 μM ZM447439 (FIG. 48E), 16 nM AZD2811 (FIG. 48F), or DMSO for 72 h, and cell survival was measured by a fluorescence metabolic assay. In each condition, the value measured with dex was normalized to the fluorescence value measured with ethanol. Percentage of survival is shown as the mean±SEM of 5 individual experiments and the p-value for each dex concentration was calculated using a paired t-test. *p≤0.05, **p≤0.01, * * *p≤0.001. F-test comparing the two curves: p≤0.001.
# FIGS. 55A, 55B, and 55C show JIB-04 enhances GC-induced death of B-ALL cell line NALM6.
smiles,measurement,setting,value
"Nc1ncnc2c1ncn2C(C=O)OC(C=O)CO (stereo not drawn) [Adox, adenosine dialdehyde]",pan-methyllysine antibody signal on wild type hG9a,[1]; 40 μM,strongly decreased
COc1cc(Nc2ncc3c(n2)-c2ccc(Cl)cc2C(c2c(F)cccc2OC)=NC3)ccc1C(=O)O [Alisertib],cell survival with dex,[2],not significant; also recorded: did not have any effect
COc1cc2c(NC3CCN(C(C)C)CC3)nc(N3CCC(F)(F)CC3)nc2cc1OCCCN1CCCC1 [UNC0642],pan-methyllysine antibody signal on wild type hG9a,[1]; 2 μM inhibitor,strongly decreased

# — US20200181284A1, “EPIGENETIC INHIBITORS FOR SENSITIZING HEMATOLOGIC OR OTHER MALIGNANCIES TO GLUCOCORTICOID THERAPY” (UNIVERSITY OF SOUTHERN CALIFORNIA, priority 2017, published 2020)
